We go through 21 compounds from US4250176A, “Piperazine derivatives” (priority 1979, dated 1981).

In experiment [1] the test system is Guinea-pig ileum strips, histamine-induced contraction. Description: Anti-histamine activity in "vitro": histamine-induced spasms of guinea-pig ileum strips. Format: cell-based. To be noted: for IC50: Cavia porcellus, 5 min. Here is the method:
The histamine--(0.5 mg/liter) induced spasms are recorded Kymographically with an isotonic lever giving a 5-fold magnification.

In experiment [2] the test system is Guinea pigs sensitized to ovalbumin (anaphylactic shock). Description: Anaphylaxis in guinea pigs: protection against death after ovalbumin challenge (survival). The conditions noted are these: for ED50: Cavia porcellus, read-out: Anaphylaxis in guinea pigs oral effective dose in mg/kg: Survival. Format: in vivo, guinea pig. In short, it runs like this:
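Guinea pigs (400–500 g) sensitized by subplantar ovalbumin antiserum, dosed orally 24 h later. ED50 is the oral dose protecting 50% of animals from death.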

Experiment [3] relates to histamine paw oedema in guinea pigs. Description: Histamine paw oedema in guinea pigs. The class given is in vivo, guinea pig. The conditions noted are these: for minimal effective dose: Cavia porcellus, read-out: Anaphylaxis in guinea pigs oral effective dose in mg/kg: Histamine oedema. In short, it runs like this:
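Guinea pigs of 400–500 g were dosed orally with compound or saline 24 h after subplantar ovalbumin antiserum sensitisation in the left hind paw. Two hours after dosing, histamine 50 μg was injected subplantar into the right hind paw to induce oedema.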

Where [4] appears, read: Table I-b, histamine 0.5 mg/liter, 5 minutes incubation, concentration giving significant inhibition (50%) of the contraction, read-out: Histamine in "vitro" (ileum) effective conc.
[5] abbreviates: Table I-b, estimated ED50, oral, protection against death after i.v. 0.6 mg ovalbumin.
The mark [6] stands for this setting: Table I-b, oral dose giving paw reaction below 10 units 10 minutes after 50 μg histamine s.p., 2 hours after dosing.
The mark [7] stands for this setting: Table I-e, histamine 0.5 mg/liter, 5 minutes incubation, concentration giving significant inhibition (50%) of the contraction, read-out: Histamine in "vitro" (ileum) effective dose.
[8] abbreviates: Table I-e, estimated ED50, oral, protection against death after i.v. 0.6 mg ovalbumin.
Where [9] appears, read: Table I-e, oral dose giving paw reaction below 10 units 10 minutes after 50 μg histamine s.p., 2 hours after dosing.

Converted amounts (≈) assume the structure as drawn. Where a name gives a salt, the structure may show the parent alone. Read-outs that look alike come from different tables or passages of the source.

Consider `Cc1nc2ccccc2n1CCCN1CCN(C(c2ccccc2)c2ccccc2)CC1` [I-b: M=CH3, R1=H, (CH2)3, R6=H, R7=H, 1-{3-[4-(diphenylmethyl)-1-piperazinyl]propyl}-2-methyl-1H-benzimidazole], for which, in experiment [1] (setting [4]), the IC50 was found to be 0.02 mg/L (≈ 0.0471 µM). Moreover, the ED50 in experiment [2] (setting [5]) is 2.5 mg/kg. The minimal effective dose in experiment [3] (setting [6]) turned out to be 2.5 mg/kg.

Turning to `Cc1nc2ccccc2n1CCCCN1CCN(C(c2ccccc2)c2ccccc2)CC1` [I-b: M=CH3, R1=H, (CH2)4, R6=H, R7=H, 1-{4-[4-(diphenylmethyl)-1-piperazinyl]butyl}-2-methyl-1H-benzimidazole], the IC50 in experiment [1] (setting [4]) was found to be 0.005 mg/L (≈ 0.0114 µM). The ED50 in experiment [2] (setting [5]) was 1.25 mg/kg. Further, in experiment [3] (setting [6]), the minimal effective dose stood at 1.25 mg/kg.

For the compound `CSc1nc2ccccc2n1CCCN1CCN(C(c2ccccc2)c2ccccc2)CC1` [I-b: M=CH3S, R1=H, (CH2)3, R6=H, R7=H, 1-{3-[4-(diphenylmethyl)-1piperazinyl]propyl}-2-(methylthio)-1H-benzimidazole trihydrochloride.hydrate], the IC50 in experiment [1] (setting [4]) came out at 0.16 mg/L. The ED50 in experiment [2] (setting [5]) is 1.25 mg/kg. Besides, in experiment [3] (setting [6]), the minimal effective dose worked out at 1.25 mg/kg.

As to `Nc1nc2ccccc2n1CCCN1CCN(C(c2ccccc2)c2ccccc2)CC1` [I-b: M=H2N, R1=H, (CH2)3, R6=H, R7=H, 1-{3-[4-(diphenylmethyl)-1-piperazinyl]propyl}-1H-benzimidazol-2-amine], the IC50 in experiment [1] (setting [4]) is at most 0.16 mg/L. In addition, the ED50 in experiment [2] (setting [5]) is 2.5 mg/kg. The minimal effective dose in experiment [3] (setting [6]) is 2.5 mg/kg.

Take `c1ccc(C(c2ccccc2)N2CCN(CCn3cnc4ccccc43)CC2)cc1` [I-b: M=H, R1=H, (CH2)2, R6=H, R7=H, 1-{2-[4-(diphenylmethyl)-1-piperazinyl]ethyl}-1H-benzimidazole]: the IC50 in experiment [1] (setting [4]) worked out at 0.005 mg/L (≈ 0.0126 µM). In addition, in experiment [2] (setting [5]), the ED50 is 1.25 mg/kg. The minimal effective dose in experiment [3] (setting [6]) is 1.25 mg/kg.

As for `Cl.Cl.Cl.Clc1ccccc1C(c1ccccc1)N1CCN(CCCn2cnc3ccccc32)CC1.O.O` (stereo not drawn) [I-b: M=H, R1=H, (CH2)3, R6=2-Cl, R7=H, 1-[3-{4-[(2-chlorophenyl)phenylmethyl]-1-piperazinyl}propyl]1H-benzimidazole trihydrochloride dihydrate], the IC50 in experiment [1] (setting [4]) stood at 0.01 mg/L. In addition, the ED50 in experiment [2] (setting [5]) is 1.25 mg/kg. Besides, the minimal effective dose in experiment [3] (setting [6]) turned out to be 1.25 mg/kg.

As to `Clc1ccc(C(c2ccccc2)N2CCN(CCCn3cnc4ccccc43)CC2)cc1` (stereo not drawn) [I-b: M=H, R1=H, (CH2)3, R6=4-Cl, R7=H, 1-[3-{4-[(4-chlorophenyl)phenylmethyl]-1-piperazinyl}propyl]-1H-benzimidazole], the IC50 in experiment [1] (setting [4]) turned out to be 0.01 mg/L (≈ 0.0225 µM). In addition, in experiment [2] (setting [5]), the ED50 was 0.08 mg/kg. For the same compound, the minimal effective dose in experiment [3] (setting [6]) was determined as 0.31 mg/kg.

Take `Fc1ccc(C(c2ccc(F)cc2)N2CCN(CCCn3cnc4ccccc43)CC2)cc1.O` [I-b: M=H, R1=H, (CH2)3, R6=4-F, R7=4-F, 1-[3-{4-[bis(4-fluorophenyl)methyl]-1-piperazinyl}propyl]-1H-benzimidazole hydrate]: the IC50 in experiment [1] (setting [4]) was 0.02 mg/L. Further, the ED50 in experiment [2] (setting [5]) was 0.16 mg/kg. Also, the minimal effective dose in experiment [3] (setting [6]) came to 0.31 mg/kg.

With `Fc1ccc(C(c2ccccc2)N2CCN(CCCn3cnc4ccccc43)CC2)cc1` (stereo not drawn) [I-b: M=H, R1=H, (CH2)3, R6=4-F, R7=H], the IC50 in experiment [1] (setting [4]) was determined as 0.005 mg/L (≈ 0.0117 µM). Also, the ED50 in experiment [2] (setting [5]) is 0.31 mg/kg. Besides, the minimal effective dose in experiment [3] (setting [6]) was determined as 0.31 mg/kg.

With `c1ccc(C(c2ccccc2)N2CCN(CCCn3cnc4ccccc43)CC2)cc1` [I-b: M=H, R1=H, (CH2)3, R6=H, R7=H], the IC50 in experiment [1] (setting [4]) turned out to be 0.0025 mg/L (≈ 0.00609 µM). In addition, the ED50 in experiment [2] (setting [5]) was 0.08 mg/kg. Besides, the minimal effective dose in experiment [3] (setting [6]) stood at 0.16 mg/kg.

In the case of `CC(C)O.Cl.Cl.Cl.Cl.Cl.Cl.Clc1cccc(C(c2ccccc2)N2CCN(CCCn3cnc4ccccc43)CC2)c1.Clc1cccc(C(c2ccccc2)N2CCN(CCCn3cnc4ccccc43)CC2)c1.O.O` (stereo not drawn) [I-b: M=H, R1=H, (CH2)4, R6=3-Cl, R7=H, 1-[3-{4-[(3-chlorophenyl)phenylmethyl]-1-piperazinyl}propyl]-1H-benzimidazole trihydrochloride.hydrate.hemi-2-propanolate], in experiment [1] (Table I-b, histamine 0.5 mg/liter, 5 minutes incubation, concentration giving significant inhibition (50%) of the contraction), the “Histamine in "vitro" (ileum) effective conc.” value stood at 0.01 mg/L. Besides, the “Anaphylaxis in guinea pigs oral effective dose in mg/kg: Survival” value in experiment [2] (setting [5]) is reported as 1.25 mg/kg. Further, in experiment [3] (setting [6]), the “Anaphylaxis in guinea pigs oral effective dose in mg/kg: Histamine oedema” value was 1.25 mg/kg.

Regarding `Fc1ccc(C(c2ccc(F)cc2)N2CCN(CCCCn3cnc4ccccc43)CC2)cc1` [I-b: M=H, R1=H, (CH2)4, R6=4-F, R7=4-F, 1-[4-{4-[bis(4-fluorophenyl)methyl]-1-piperazinyl}butyl]-1H-benzimidazole], the IC50 in experiment [1] (setting [4]) amounted to 0.005 mg/L (≈ 0.0109 µM). Besides, the ED50 in experiment [2] (setting [5]) is 0.31 mg/kg. Moreover, the minimal effective dose in experiment [3] (setting [6]) turned out to be 0.31 mg/kg.

In the case of `Fc1ccc(C(c2ccccc2)N2CCN(CCCCn3cnc4ccccc43)CC2)cc1` (stereo not drawn) [I-b: M=H, R1=H, (CH2)4, R6=4-F, R7=H, 1-[4-{4-[(4-fluorophenyl)phenylmethyl]-1-piperazinyl}butyl]-1H-benzimidazole], the IC50 in experiment [1] (setting [4]) amounted to 0.005 mg/L (≈ 0.0113 µM). Also, the ED50 in experiment [2] (setting [5]) is 0.08 mg/kg. The minimal effective dose in experiment [3] (setting [6]) came out at 0.16 mg/kg.

Consider `c1ccc(C(c2ccccc2)N2CCN(CCCCn3cnc4ccccc43)CC2)cc1` [I-b: M=H, R1=H, (CH2)4, R6=H, R7=H, 1-[4-[4-(diphenylmethyl)-1-piperazinyl]butyl}-1H-benzimidazole], for which the IC50 in experiment [1] (setting [4]) is 0.0025 mg/L (≈ 0.00589 µM). For the same compound, in experiment [2] (setting [5]), the ED50 is 0.16 mg/kg. Also, in experiment [3] (setting [6]), the minimal effective dose was found to be 0.16 mg/kg.

Turning to `Sc1nc2ccccc2n1CCCN1CCN(C(c2ccccc2)c2ccccc2)CC1` [I-b: M=HS, R1=H, (CH2)3, R6=H, R7=H, 1-{3-[4-(diphenylmethyl)-1-piperazinyl]propyl}-1H-benzimidazole-2-thiol], in experiment [1] (setting [4]), the IC50 came out at 0.01 mg/L (≈ 0.0226 µM). Besides, in experiment [2] (setting [5]), the ED50 is 0.63 mg/kg. The minimal effective dose in experiment [3] (setting [6]) turned out to be 1.25 mg/kg.

As for `Cl.Cl.O=c1oc2ccccc2n1CCCN1CCN(C(c2ccccc2)c2ccccc2)CC1` [I-c: Y=O, 3-{3-[4-(diphenylmethyl)-1-piperazinyl]propyl}-2(3H)benzoxazolone dihydrochloride], the IC50 in experiment [1] (read-out: Histamine in "vitro" (ileum) effective conc. in mg/l) stood at 0.01 mg/L. Further, the ED50 in experiment [2] (po) is 0.63 mg/kg. In experiment [3] (po, 2 h), the minimal effective dose was 2.5 mg/kg.

Turning to `O=c1sc2ccccc2n1CCCN1CCN(C(c2ccccc2)c2ccccc2)CC1` [I-c: Y=S, 3-{3-[4-(diphenylmethyl)-1-piperazinyl]propyl}-2(3H)-benzothiazolone dihydrochloride.hemihydrate], in experiment [1] (Table I-c, histamine 0.5 mg/liter, 5 minutes incubation, concentration giving significant inhibition (50%) of the contraction, read-out: Histamine in "vitro" (ileum) effective conc.), the IC50 turned out to be 0.01 mg/L. For the same compound, the ED50 in experiment [2] (Table I-c, estimated ED50, oral, protection against death after i.v. 0.6 mg ovalbumin) is 1.25 mg/kg. Besides, the minimal effective dose in experiment [3] (Table I-c, oral dose giving paw reaction below 10 units 10 minutes after 50 μg histamine s.p., 2 hours after dosing) amounted to 1.25 mg/kg.

As for `O=c1[nH]c2ccccc2n1CCCN1CCN(C(c2ccc(Cl)cc2)c2cccnc2)CC1` (stereo not drawn) [I-e: Ar1=4-Cl-C6H4, Ar2=3-pyridinyl, 1-[3-{4-[(4-chlorophenyl)(3-pyridinyl)methyl]-1-piperazinyl}propyl]-1,3-dihydro-2H-benzimidazol-2-one], the IC50 in experiment [1] (setting [7]) was determined as 0.08 mg/L (≈ 0.173 µM). For the same compound, the ED50 in experiment [2] (setting [8]) is 1.25 mg/kg. Moreover, the minimal effective dose in experiment [3] (setting [9]) is 2.5 mg/kg.

`O=c1[nH]c2ccccc2n1CCCN1CCN(C(c2ccc(F)cc2)c2cccnc2)CC1` (stereo not drawn) [I-e: Ar1=4-FC6H4, Ar2=3-pyridinyl, 1-[3-{4-[(4-fluorophenyl)(3-pyridinyl)methyl]-1-piperazinyl}propyl]-1,3-dihydro-2H-benzimidazol-2-one]: the IC50 in experiment [1] (setting [7]) was found to be 0.08 mg/L (≈ 0.18 µM). Further, in experiment [2] (setting [8]), the ED50 was below 2.5 mg/kg. For the same compound, the minimal effective dose in experiment [3] (setting [9]) was below 2.5 mg/kg.

Take `CCOC(=O)CCn1c(=O)n(CCCN2CCN(C(c3ccccc3)c3ccccc3)CC2)c2ccccc21` [ethyl 3-{3-[4-(diphenylmethyl)-1-piperazinyl]propyl}-2,3-dihydro-2-oxo-1H-benzimidazole-1-propanoate dihydrochloride. dihydrate]: the IC50 in experiment [1] (Table I-a, histamine 0.5 mg/liter, 5 minutes incubation, concentration giving significant inhibition (50%) of the contraction, read-out: Histamine in "vitro" (ileum) effective conc.) worked out at 0.005 mg/L. The ED50 in experiment [2] (Table I-a, estimated ED50, oral, protection against death after i.v. 0.6 mg ovalbumin) was 0.63 mg/kg. The minimal effective dose in experiment [3] (Table I-a, oral dose giving paw reaction below 10 units 10 minutes after 50 μg histamine s.p., 2 hours after dosing) worked out at 0.63 mg/kg.

`COC(=O)Nc1nc2ccccc2n1CCCN1CCN(C(c2ccccc2)c2ccccc2)CC1` [methyl [1-{3-[4-(diphenylmethyl)-1-piperazinyl]propyl}-1H-benzimidazol-2-yl]carbamate]: in experiment [1] (setting [4]), the IC50 was at most 0.16 mg/L. Further, in experiment [2] (setting [5]), the ED50 is 2.5 mg/kg. Besides, the minimal effective dose in experiment [3] (setting [6]) is 2.5 mg/kg.
